Experimental data published in US20130143873A1 (priority 2010, published 2013).

Tests used:
[1] = tested on: C57BL/6J-TgN(SOD1-G93A)1Gur^dl transgenic mice; test: Survival in transgenic mice model for amyotrophic lateral sclerosis; type: in vivo
Description: (§1) Transgenic C57BL/6J-TgN(SOD1-G93A)1Gur^dl mice were originally purchased from The Jackson Laboratories (Bar Harbor, Me.) and routinely identified as positive carriers of the transgene at early postnatal age by PCR amplification (Garney et al. Motor neuron degeneration in mice that express a human Cu,Zn superoxide dismutase mutation. Science 1994. 264(5166):1772-5). The animal colony was kept under controlled temperature (22±2° C.), humidity (40-60%) and light (12 h cycles), and treated in accordance with the European Community Council directive on animal welfare (86/609/EEC).
At 70 days postnatal age, mice identified as positive carriers of the SOD1-G93A transgene were randomly assigned to a diazoxide-treatment or control group. An additional group composed by wild type C57BL/6J was also used as absolute control for spontaneous deaths. The treatment started at postnatal day 70 and lasted until the animal was sacrificed. […] Each group consists of 14 animals.
Around 75 days of postnatal age treated and not treated mice began to display less exploratory activity and less feeding behaviour as well as a loss of body weight. 20-30 days after, motor deficits were clearly observable, with a continuous loss of muscular mass and body weight. Between postnatal day 137 and 172 animals began to not be able to right themselves within 30 seconds from either side being this their last period of survival. Date and cause of death were recorded for each mouse. For humanitarian reasons, animals were closely monitored and sacrificed as moribund prior to actual death using criteria for severe moribund state. To determine duration of survival reliably and humanely, the moribund state, defined as the inability of mice to right themselves 30 seconds after being placed on a side was used. The moribund mice were considered as “dead”, and were euthanized using carbon dioxide. It is known that when animals reach this “moribund” stage they are unable to survive more than 24 additional hours.

[2] = Blood glucose (hyperglycemia) after daily oral diazoxide in SOD1-G93A transgenic mice; type: in vivo; details: 4 mg/kg/day (12 mg/m^2/day) and 0.8 mg/kg/day (2.4 mg/m^2/day) p.o., 100 days, glucose at postnatal days 105, 115, 145
Description: as §1
At 40 days postnatal age, mice identified as positive carriers of the SOD1-G93A transgene were randomly assigned to a diazoxide-treatment or control group. The treatment started at postnatal day 45 and lasted until postnatal day 145. […] Each group consists of 3 animals.
Glucose blood levels were measured at postnatal days 105, 115 and 145. Measurements were performed immediately before drug administration (time 0) and at 60 minutes. Blood samples were obtained from the saphenous vein and glucose levels were determined using a glucometer and glucose test strips (Accu-Chek® Aviva, Roche Diagnostics, Indianapolis, Ind., USA). For each group, hyperglycemia was considered when glucose concentration was equal or higher than 176 mg/dl.

[3] = Blood glucose (hyperglycemia) after daily oral diazoxide in C57BL/6J mice; type: in vivo; details: female C57BL/6J mice; 1 mg/kg (3 mg/m^2) and 0.05 mg/kg (0.15 mg/m^2) p.o. daily; 30 days; glucose at time 0 and 60 minutes
Description: Female C57BL/6J mice, 11 weeks of age, were purchased from Charles River and maintained on a 12:12 hr light:dark cycle, with standard chow and water freely available. The experiments began at 11:00 h. […] From day 4 on, glucose blood levels were measured every 3-4 days during the 30-day treatment period. Measurements were performed immediately before drug administration (time 0) and at 60 minutes. Blood samples were obtained from the saphenous vein and glucose levels were determined using a glucometer and glucose test strips (Accu-Chek® Aviva, Roche Diagnostics, Indianapolis, Ind., USA). For each group, hyperglycemia was considered when glucose concentration was equal or higher than 176 mg/dl.

mice = details: 100 mg/kg (300 mg/m^2); cited from earlier work
[4] = tested on: C57BL/6J-TgN(SOD1-G93A)1Gur^dl transgenic mice; test: Disease onset (time of peak body weight) in transgenic mice model for amyotrophic lateral sclerosis; type: in vivo; details: postnatal day 45 to 145
Description: as §1
At 40 days postnatal age, mice identified as positive carriers of the SOD1-G93A transgene were randomly assigned to a diazoxide-treatment or control group. The treatment started at postnatal day 45 and lasted until postnatal day 145. […] Each group consists of 30 animals.
The disease onset was determined as the time when the mouse reached its peak body weight.

[5] = tested on: C57BL/6J-TgN(SOD1-G93A)1Gur^dl transgenic mice; test: Motor nerve conduction, tibialis anterior CMAP amplitude, in transgenic mice model for amyotrophic lateral sclerosis; type: in vivo; details: postnatal day 45 to 85; for increase in the amplitude of the tibialis anterior CMAP compared with the vehicle control group: 100% = mean CMAP amplitude of wild type control group
Description: as §1
At 40 days postnatal age, mice identified as positive carriers of the SOD1-G93A transgene were randomly assigned to a diazoxide-treatment or control group. An additional group composed by wild type C57BL/6J was also used as absolute control for nerve conduction measurements. The treatment started at postnatal day 45 and lasted until postnatal day 85. The drug was administered daily orally by gavage (p.o.), in a dose volume of 200 μl. […] Each group consists of 8 animals.
At postnatal day 85 days, animals were tested for nerve conduction measurament. For motor nerve conduction tests, the sciatic nerve was stimulated percutaneously by means of single pulses of 0.02 ms duration (Grass S88) delivered through a pair of needle electrodes placed at the sciatic notch. The Compound Muscle Action Potential (CMAP, M wave) was recorded from the tibialis anterior (TA) with microneedle electrodes. […] To ensure reproducibility, the recording needles were placed under microscope to secure the same placement on all animals guided by anatomical landmarks. During the tests, the mice body temperature was kept constant by means of a thermostated warming pad.

[6] = 0.05 mg/kg/day (0.15 mg/m^2/day) p.o. from postnatal day 70
[7] = 0.1 mg/kg/day (0.3 mg/m^2/day) p.o. from postnatal day 70
[8] = 1 mg/kg/day (3 mg/m^2/day) p.o. from postnatal day 70

CC1=NS(=O)(=O)c2cc(Cl)ccc2N1 [Diazoxide]
Median Survival [1, 6]: 153 days | Percentage of mice alive at age of 21 weeks [1, 6]: 78.6% | Percentage of mice alive at age of 21 weeks ([1]; 0.05 mg/kg/day (0.15 mg/m^2/day) p.o. from postnatal day 70, listed as diazoxide): 78.6% | Median Survival [1, 7]: 152 days | Percentage of mice alive at age of 21 weeks [1, 7]: 71.4% | Percentage of mice alive at age of 21 weeks ([1]; 0.1 mg/kg/day (0.3 mg/m^2/day) p.o. from postnatal day 70, listed as diazoxide): 71.4% | Median Survival [1, 8]: 156 days | Percentage of mice alive at age of 21 weeks [1, 8]: 85.7% | Percentage of mice alive at age of 21 weeks ([1]; 1 mg/kg/day (3 mg/m^2/day) p.o. from postnatal day 70, listed as diazoxide): 85.7% | hyperglycemia (glucose concentration equal or higher than 176 mg/dl) [2]: none of the two doses tested in this study produced hyperglycemia | hyperglycemia (glucose concentration equal or higher than 176 mg/dl) [3]: none of the two doses tested in this study produced hyperglycemia | effect on bupivacaine-induced acute CNS toxicity (latency of convulsions) (mice): reduce the bupivacaine-induced actute CNS toxicity | Median Age of Disease Onset ([4]; 0.8 mg/kg/day (2.4 mg/m^2/day) p.o.): 121 days | Median Age of Disease Onset ([4]; 4 mg/kg/day (12 mg/m^2/day) p.o.): 116 days | increase in the amplitude of the tibialis anterior CMAP compared with the vehicle control group ([5]; 0.8 mg/kg/day (2.4 mg/m2/day) p.o.): 17.1% | increase in the amplitude of the tibialis anterior CMAP compared with the vehicle control group ([5]; 4 mg/kg/day (12 mg/m2/day) p.o.): 3.4% | amplitude of the tibialis anterior CMAP compared to the vehicle control group ([5]; 8 mg/kg/day (24 mg/m^2/day) p.o.): no differences
